Measurements published in US9271493B2, “Methods for microbial biofilm destruction” (priority 2012, dated 2016).
Like-named read-outs stand apart in the source and are kept apart here.

Experiments:
UTI89 [1] = experiment: colony biofilm formation on YESCA agar; assay type: cell-based, uropathogenic E. coli; conditions: for biofilm formation on agar (colony morphology): UTI89 on YESCA agar
Method: (§1) Growth conditions. UTI89, UTI89ΔcsgA, MC4100, and MC4100Δcsg were grown on YESCA (0.5 g/L yeast extract; 10 g/L Casamino acids) agar supplemented with additional compounds as indicated.
(§2) Biofilm assays. Colony biofilm formation was initiated by spotting 10 μl of overnight bacterial culture onto a YESCA agar plate (Kolodkin-Gal et al. (2010) Science 328:627-629). Colony morphology was observed after designated growth times at 26° C. Biofilm in YESCA broth attached to plastic (polyvinyl chloride, PVC) was determined using the Kolter crystal violet assay as described by O'Toole et al. (1998) Mol. Microbiol. 28:449-461. Briefly, bacterial cells were grown in 96-well PVC plates; unattached cells were washed away; and cells remaining associated with the PVC wells were stained with 0.1% crystal violet. The extent of biofilm formation was quantified by measuring the absorbance of crystal violet at OD595 after dissolving the PVC-associated biomass in 95% ethanol. The percent biofilm represents the increase in biofilm formation in the presence of various concentrations of DMSO and ethanol relative to biofilm formation when no compound was present. The mean of triplicate individual experiments was used and error bars represent the standard deviation. Pellicle formation was initiated by inoculating 4 μL of an overnight bacterial culture grown in YESCA broth in 4 mL YESCA in 12-well-plate wells and incubated at 26° C. Pellicle formation was inspected visually and assessed by perturbation with a pipet tip after 72 hours of growth.

UTI89 [2] = experiment: pellicle formation (biofilm at the air-liquid interface); assay type: cell-based, uropathogenic E. coli; conditions: for pellicle formation / biofilm formation at the air-liquid interface: UTI89; for concentration preventing formation of a biofilm at the air-liquid interface: UTI89, complete inhibition
Method: as §2

E. coli strain MC4100 = experiment: fibronectin-binding assay (adhesion to fibronectin-coated plates); assay type: cell-based; conditions: MC4100 grown under curli-producing conditions on agar in the presence of compound; dose-dependent
Description: We employed a commonly used fibronectin-binding assay to determine whether curcumin blocks adhesion of E. coli strain MC4100 to fibronectin-coated plates. MC4100 is the E. coli strain in which curli biogenesis was first described. […] UTI89, on the other hand, is a prototypical biofilm-competent strain that forms biofilms on agar, on plastic, and at an air-liquid interface when expressing curli and cellulose. Since curli are sufficient to mediate binding to fibronectin, the use of MC4100 readily allows one to determine whether a compound or external stimulus can influence curli-dependent adhesion.
as §1

[3] = tested on: curli proteins, CsgA and CsgG; experiment: Western blot analysis of cell-associated curli proteins; assay type: cell-based, E. coli
Method: Western blot analysis. The cell-associated curli proteins, CsgA and CsgG, were examined by immunoblot assays as described (41). Briefly, whole-cell samples with equivalent cell number were prepared as cell pellets of 1 mL cell culture with an OD600 of 1.0. Each pellet was treated with 100 μL hexafluoroisopropanol (HFIP) to dissociate curli subunits (41). HFIP was removed by vacuum centrifugation, and samples were resuspended in SDS-PAGE loading buffer. Protein gel electrophoresis was carried out using 12% SDS-PAGE gels (Invitrogen) and blotted onto […] nitrocellulose transfer membranes (Whatman). The polyclonal rabbit antiserum to CsgA or CsgG was used as the primary antibody and horseradish peroxidase (HRP) conjugated goat anti-rabbit antibody (Pierce) was used as the secondary antibody (55).

UTI89 [4] = experiment: biofilm attached to PVC plastic, 96-well crystal violet assay; assay type: cell-based, uropathogenic E. coli
Method: as §2

E. coli = experiment: biofilm formation attached to Teflon (1 mL Teflon beakers, crystal violet); assay type: cell-based; conditions: 48 hours at 26° C. in YESCA broth
Method: FIG. 4. Curcumin and dim ethyl curcumin reduce E. coli biofilm formation attached to Teflon using 1 mL Teflon beakers. After bacterial incubation for 48 hours at 26° C. in YESCA nutrient broth in the presence or absence of compounds, planktonic and loosely associated bacteria were washed from the beakers and adherent bacteria were stained with crystal violet, dissolved in ethanol and quantified by spectrophotometry.
Teflon is often used as a material in various industrial and biomedical applications, including the production of catheters. Teflon is often employed due to its general anti-adherent properties. Yet, even E. coli can adhere to Teflon and forms biofilms on Teflon surfaces. Thus, we also examined the ability of curcumin and DMC to prevent biofilm formation attached to Teflon using small 1-mL Teflon beakers.

curli [5] = target: T1, curli (Escherichia coli, UniProt P28307); conditions: McCrate, Zhou, and Cegelski 2013; cited from earlier work
amyloid β = amyloid β (Homo sapiens, UniProt P05067); conditions: oligomer form and fibril form; Yang et al. 2005; cited from earlier work
[6] = target: Alzheimer's β-amyloid fibrils (Homo sapiens, UniProt P05067); conditions: Ono et al. 2004; cited from earlier work
curli [7] = target: T1, curli; conditions: cited from earlier work

T1 sequence (P28307 21-151): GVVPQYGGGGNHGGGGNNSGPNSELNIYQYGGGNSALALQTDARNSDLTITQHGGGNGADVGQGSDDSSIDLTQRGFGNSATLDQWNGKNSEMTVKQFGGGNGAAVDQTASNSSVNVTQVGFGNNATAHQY
amyloid β, sequence (P05067 672-713 limits assumed): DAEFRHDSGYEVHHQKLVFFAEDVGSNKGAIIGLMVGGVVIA
Alzheimer's β-amyloid fibrils, sequence (P05067 672-713 limits assumed): as above

Nc1c(/N=N/c2ccc(-c3ccc(/N=N/c4cc(S(=O)(=O)O)c5ccccc5c4N)cc3)cc2)cc(S(=O)(=O)O)c2ccccc12 [Congo red]
biofilm formation on agar (colony morphology) (UTI89 [1]): does not block biofilm formation
pellicle formation / biofilm formation at the air-liquid interface (UTI89 [2]): not

COc1cc(/C=C/C(=O)CC(=O)/C=C/c2ccc(O)c(OC)c2)ccc1O [curcumin]
adhesion to the protein fibronectin (E. coli strain MC4100): reduced adhesion
production of curli proteins ([3]; MC4100, Western blot): did not influence
curli production ([3]; UTI89, Western blot): not affected
biofilm inhibition on agar after 5 days (UTI89 [1]; UTI89, 5 days of bacterial growth): diminished after 5 days
biofilm formation on agar (colony morphology) (UTI89 [1]): lost the hallmark rough and wrinkled phenotype
pellicle formation / biofilm formation at the air-liquid interface (UTI89 [2]): completely prevent pellicle formation
concentration preventing formation of a biofilm at the air-liquid interface (UTI89 [2]): 25 µM
concentration blocking biofilm formation attached to plastic (PVC) (UTI89 [4]): 25 µM
concentration blocking biofilm formation attached to plastic (PVC) (UTI89 [4]; listed as curumin): 10 µM
biofilm formation attached to Teflon (E. coli): effective at significantly preventing biofilm formation
binding to curli (curli [5]): binding to curli
binding to amyloid β (amyloid β): bind
amyloid fibril formation in vitro [6]: prevent amyloid fibril formation

COc1ccc(/C=C/C(=O)CC(=O)/C=C/c2ccc(OC)c(OC)c2)cc1OC [DMC, dimethoxycurcumin]
concentration preventing formation of a biofilm at the air-liquid interface (UTI89 [2]): 10 µM
concentration blocking biofilm formation attached to plastic (PVC) (UTI89 [4]): 10 µM

LL-37
curli formation (curli [7]): inhibits curli formation
